Source: US8093297B2 (Mutual Pharmaceutical Company, Inc., priority 2009, dated 2012)
Like-named read-outs stand apart in the source and are kept apart here.

Tests used:
[1] = Clinical drug-drug interaction study of colchicine and verapamil (Example 8); conditions: for AUC0-inf: both, human, in vivo, 0.6 mg
Description: (§1) This study was an open-label, non-randomized, single-center, one-sequence, two-period drug interaction study conducted in healthy male and female volunteers. Twenty-four (24) non-smoking, non-obese adult volunteers were enrolled. All subjects were dosed and studied as a single cohort, with each subject receiving the same treatment in a non-randomized fashion.
(§2) Pharmacokinetic parameters referred to herein describe the in vivo characteristics of drug (or a metabolite or a surrogate marker for the drug) over time. These include plasma concentration (C), as well as Cmax, Cn, C24, Tmax, and AUC. “Cmax” is the measured plasma concentration of the active agent at the point of maximum, or peak, concentration. “Cmin” is the measured plasma concentration of the active agent at the point of minimum concentration. “Cn” is the measured plasma concentration of the active agent at about n hours after administration. […] The term “Tmax” refers to the time from drug administration until Cmax is reached. “AUC” is the area under the curve of a graph of the measured plasma concentration of an active agent vs. time, measured from one time point to another time point. […] Time t can be the last time point with measurable plasma concentration for an individual formulation. The AUC0-∞, AUC∞ or AUC0-inf is the calculated area under the curve of plasma concentration versus time from time 0 to time infinity.

[2] = colchicine given concomitantly with the named drug; cited from earlier work
[3] = clinical; conditions: both, human, plasma, 0.6 mg
Description: as §1, §2

[4] = clinical; conditions: both, human, plasma, oral, 0.6 mg, colchicine in plasma
Description: This study was an open-label, non-randomized, single-center, one-sequence, two-period drug interaction study conducted in healthy male and female volunteers; there was a 14-day washout between the two periods. Twenty-four (24) non-smoking, non-obese adult volunteers were enrolled. All subjects were dosed and studied as a single cohort, with each subject receiving the same treatment in a non-randomized fashion.
Azithromycin was administered for 5 consecutive days (2×250 mg once daily [Day 15 only] and then 1×250 mg once daily Days 16-19) beginning on the morning of Day 15, with the last 250 mg azithromycin dose administered on the morning on Day 19.
Azithromycin plasma concentrations were not measured.
as §2

[5] = clinical; conditions: both, human, plasma, oral, 0.6 mg, geometric mean, colchicine in plasma, single 0.6 mg dose alone or with steady-state ketoconazole 200 mg b.i.d., ln-transformed data
Excerpt: This study was an open-label, non-randomized, single-center, one-sequence, two-period drug interaction study conducted in healthy male and female volunteers; there will be a 14-day washout between the two periods. Twenty-four (24) non-smoking, non-obese adult volunteers were enrolled.
as §2

[6] = clinical; conditions: both, human, plasma, 0.6 mg, colchicine in plasma, single 0.6 mg dose alone (Day 1) or with steady-state diltiazem (Day 21), N=20, arithmetic mean
Description: as §1, §2

[7] = colchicine in plasma; single 0.6 mg dose alone (Day 1) or with steady-state diltiazem (Day 21); N=20; arithmetic mean
Description: as §1, §2

[8] = for AUC0-t, geometric mean / AUC∞, geometric mean / Cmax, geometric mean: single 0.6 mg dose alone or with steady-state ritonavir 100 mg b.i.d., ln-transformed data
Description: An open-label, non-randomized, single-center, one-sequence, two-period drug interaction study was conducted in healthy male and female volunteers; there will be a 14-day washout between the two periods. Twenty-four (24) non-smoking, non-obese adult volunteers were enrolled. All subjects were dosed and studied as a single cohort, with each subject receiving the same treatment in a non-randomized fashion.
On the evening of Day 18, study participants remained at the clinic for their final study confinement period.
as §2

[9] = not given; remark: listed apart in the source
[10] = Pharmacokinetic study in healthy adults of single vs. multiple oral doses of colchicine tablets (Example 1); conditions: for metabolite plasma concentration: after oral colchicine 0.6 mg single and multiple doses, LOQ 0.2 ng/mL, 13 subjects
Description: Subjects received a light breakfast served 60 minutes following dose administration in the morning and the evening dose was administered 90 minutes after an evening meal on Days 15 through 24 only. […] Study periods were separated by a 14-day washout. Following the single dose and the last dose of the multiple dose regimen (beginning on the mornings of Day 1 and Day 25, respectively), blood samples were collected (6 mL each) from each subject within 1 hour prior to dosing and after dose administration at study hours 0.5, 1, 1.5, 2, 3, 4, 6, 8, 10, 12, and 24 (while confined) and 36, 48, 72, and 96 (on an outpatient basis).
In tables, the parameter CL/F denotes the apparent total body clearance after administration, calculated as Total Dose/Total AUC0-tau; and Vd/F denotes the apparent total volume of distribution after administration, calculated as Total Dose/(Total AUC∞×Kel).
These include plasma concentration (C), as well as Cmax, Cn, C24, Tmax, and AUC. “Cmax” is the measured plasma concentration of the active agent at the point of maximum, or peak, concentration. “Cmin” is the measured plasma concentration of the active agent at the point of minimum concentration. “Cn” is the measured plasma concentration of the active agent at about n hours after administration. […] The term “Tmax” refers to the time from drug administration until Cmax is reached. “AUC” is the area under the curve of a graph of the measured plasma concentration of an active agent vs. time, measured from one time point to another time point. […] Time t can be the last time point with measurable plasma concentration for an individual formulation. The AUC0-∞, AUC∞ or AUC0-inf is the calculated area under the curve of plasma concentration versus time from time 0 to time infinity.

[11] = colchicine in plasma, N=23
[12] = tested on: FMF patients; conditions: reported; cited from earlier work
[13] = colchicine in plasma, single 0.6 mg dose alone (Day 1) or with cyclosporine 100 mg (Day 15), N=23
Description: as §1, §2

[14] = colchicine in plasma, single 0.6 mg dose alone (Day 1) or with steady-state verapamil (Day 19), N=24, arithmetic mean
[15] = colchicine in plasma, single 0.6 mg dose alone or with steady-state verapamil HCl ER 240 mg once daily
[16] = colchicine in plasma, single 0.6 mg dose alone or with steady-state ketoconazole 200 mg b.i.d., ln-transformed data
[17] = single oral 0.6 mg colchicine following ketoconazole 200 mg b.i.d. x 5 days vs alone
[18] = co-administration with ritonavir 100 mg b.i.d. x 5 days
[19] = colchicine in plasma, single 0.6 mg dose alone (Day 1) or with steady-state ritonavir (Day 19), N=18, arithmetic mean
[20] = following ritonavir 100 mg b.i.d. x 5 days vs colchicine alone
[21] = co-administration with azithromycin
[22] = colchicine in plasma, single 0.6 mg dose alone (Day 1) or with steady-state azithromycin (Day 19), N=21, arithmetic mean
[23] = colchicine in plasma, single 0.6 mg dose alone or with steady-state azithromycin
[24] = colchicine, single 0.6 mg dose alone or with steady-state azithromycin, N=21, arithmetic mean
[25] = following azithromycin 500 mg then 250 mg x 4 days vs colchicine alone
[26] = multiple (b.i.d. x 10 days) oral doses colchicine 0.6 mg, after last dose Day 25, healthy adults N=13
[27] = single oral dose colchicine 0.6 mg, fasted, healthy adults N=13
[28] = single 0.6 mg dose alone (Day 1) or with steady-state clarithromycin (Day 29), arithmetic mean
[29] = colchicine in plasma, listed as Colchicine + Ritonovir

Compound: COc1cc2c(c(OC)c1OC)-c1ccc(OC)c(=O)cc1[C@@H](NC(C)=O)CC2 [Colchicine + Verapamil]
- AUC0-t [1, 14]: 24.64 ng·h/mL
- AUC0-∞ [1, 14]: 30.59 ng·h/mL
- Cmax [1, 14]: 3.85 ng/mL
- AUC0-t, geometric mean [1, 15]: 23.88921 ng·h/mL
- AUC∞, geometric mean [1, 15]: 29.55675 ng·h/mL
- Cmax, geometric mean [1, 15]: 3.63968 ng/mL
- Tmax ([1]; colchicine in plasma, single 0.6 mg dose alone or with steady-state verapamil, N=24, head says median for Tmax): 1.15 h

Compound: CC[C@H]1OC(=O)[C@H](C)[C@@H](O[C@H]2C[C@@](C)(OC)[C@@H](O)[C@H](C)O2)[C@H](C)[C@@H](O[C@@H]2O[C@H](C)C[C@H](N(C)C)[C@H]2O)[C@](C)(OC)C[C@@H](C)C(=O)[C@H](C)[C@@H](O)[C@]1(C)O [Clarithromycin]
- Noted or Anticipated Outcome: toxicity reported with concomitant colchicine [2]: fatal colchicine toxicity

Compound: COc1cc2c(c(OC)c1OC)-c1ccc(OC)c(=O)cc1[C@@H](NC(C)=O)CC2 [Colchicine, (−)-N-[(7S,12aS)-1,2,3,10-tetramethoxy-9-oxo-5,6,7,9-tetrahydrobenzo[a]heptalen-7-yl]-acetamide]
- AUC0-inf [3]: 15 ng·h/mL
- AUC0-t [3]: 12.6 ng·h/mL
- Cmax [3]: 2.72 ng/mL
- Tmax [3]: 1.15 h
- AUC0-inf ([1]; AUC0-∞, colchicine in plasma, single 0.6 mg dose alone (Day 1) or with steady-state verapamil (Day 19), N=24, arithmetic mean): 15.4 ng·h/mL
- AUC0-inf ([1]; AUC∞, geometric mean, colchicine in plasma, single 0.6 mg dose alone or with steady-state verapamil HCl ER 240 mg once daily): 14.4 ng·h/mL
- Cmax [1, 14]: 2.97 ng/mL
- AUC0-t, geometric mean [1, 15]: 12.2564 ng·h/mL
- CL/F ([1]; colchicine, single 0.6 mg dose alone or with steady-state verapamil, N=24, arithmetic mean): 43.93 L/h
- Cmax ([4]; single 0.6 mg dose alone (Day 1) or with steady-state azithromycin (Day 19), N=21, arithmetic mean): 2.74 ng/mL
- Cmax ([4]; geometric mean, single 0.6 mg dose alone or with steady-state azithromycin): 2.54 ng/mL
- Cmax [5]: 2.6 ng/mL
- AUC0-t [6]: 10 ng·h/mL
- decrease in total apparent oral clearance (co-administration with ketoconazole 200 mg b.i.d. x 5 days): 70%
- AUC∞, geometric mean [16]: 13.18592 ng·h/mL
- increase in AUC0-t of colchicine [17]: 190%
- increase in Cmax of colchicine [17]: 90%
- Cmax [7]: 2.17 ng/mL
- decrease in total apparent oral clearance [8, 18]: 70%
- effect on Tmax [8, 18]: not affected
- AUC0-∞ [8, 19]: 10.41 ng·h/mL
- AUC0-t, geometric mean ([8]; colchicine in plasma): 7.64271 ng·h/mL
- AUC∞, geometric mean ([8]; colchicine in plasma): 9.55174 ng·h/mL
- Cmax, geometric mean ([8]; colchicine in plasma): 1.79837 ng/mL
- increase in exposure to a single 0.6-mg colchicine [8, 20]: approximately 245%
- increase in mean peak colchicine concentration [8, 20]: approximately 170%
- decrease in total apparent oral clearance [9, 21]: approximately 30%
- effect on Tmax [9, 21]: not affected
- AUC0-t [9, 22]: 11.98 ng·h/mL
- AUC0-∞ [9, 22]: 14.13 ng·h/mL
- AUC∞, geometric mean [9, 23]: 12.9318 ng·h/mL
- CL/F [9, 24]: 50.24 L/h
- increase in exposure to colchicine ([9]; concomitant administration of azithromycin (description)): approximately 46%
- increase in exposure to colchicine, AUC0-t [9, 25]: approximately 46%
- increase in exposure to colchicine, AUC0-∞ [9, 25]: approximately 40%
- increase in mean peak colchicine concentration [9, 25]: approximately 12%
- attainment of steady state (trough plasma concentrations) ([10]; 0.6 mg b.i.d.): by approximately the eighth day of dosing for most subjects
- elimination half-life ([10]; calculated following a single oral dose, stated not an accurate estimate): approximately 5 hours
- Cave, MEAN [10, 26]: 1697.22 pg/mL
- Cave, MEDIAN [10, 26]: 1701.92 pg/mL
- Cmin, MEDIAN [10, 26]: 903.50 pg/mL
- Ke1, MEAN [10, 26]: 0.0267 h⁻¹
- Ke1, MEDIAN [10, 26]: 0.0261 h⁻¹
- quantifiability of plasma concentrations after a single dose ([10]; single 0.6 mg oral dose, healthy adults): no longer quantifiable 24 hours post-dose in all but 1 subject
- secondary colchicine peak ([10]; single dose or multiple dosing, individual subject data): no subject experienced a secondary colchicine peak
- Ke1, MEAN [10, 27]: 0.1829 h⁻¹
- Ke1, MEDIAN [10, 27]: 0.1992 h⁻¹
- Cmin prior to the morning dose higher than Cmin prior to the evening dose ([10]; steady state, Day 23 and Day 24): approximately 12%
- AUC0-inf [11, 28]: 15.53 ng·h/mL
- AUC0-t [11, 28]: 12.37 ng·h/mL
- FMF patients who do not show a beneficial response to colchicine administration [12]: 5-10%

Compound: COc1cc2c(c(OC)c1OC)-c1ccc(OC)c(=O)cc1[C@@H](NC(C)=O)CC2 [Colchicine + Cyclosporine]
- Tmax (hr)* [13]: 1.13 h
- AUC0-inf ([13]; arithmetic mean): 47.31 ng·h/mL
- AUC0-t ([13]; arithmetic mean): 39.83 ng·h/mL
- Cmax ([13]; arithmetic mean): 8.82 ng/mL

Compound: COc1cc2c(c(OC)c1OC)-c1ccc(OC)c(=O)cc1[C@@H](NC(C)=O)CC2 [Colchicine + Diltiazem]
- AUC0-t [7]: 17.73 ng·h/mL
- AUC0-∞ [7]: 22.49 ng·h/mL
- Cmax [7]: 2.80 ng/mL

Compound: COc1c(O)cc2c(c1OC)-c1ccc(OC)c(=O)cc1[C@@H](NC(C)=O)CC2 [3-DMC, 3-O-demethylcolchciine]
- metabolite plasma concentration [10]: only one sample from 1 subject (of 13 subjects) had a detectable

Compound: COc1cc2c(c(OC)c1OC)-c1ccc(OC)c(=O)cc1[C@@H](NC(C)=O)CC2 [Colchicine + Ritonavir]
- AUC0-t [8, 19]: 29.05 ng·h/mL
- AUC0-∞ [8, 19]: 35.28 ng·h/mL
- Cmax [8, 19]: 4.99 ng/mL
- AUC0-t, geometric mean [8, 29]: 27.79308 ng·h/mL
- AUC∞, geometric mean [8, 29]: 33.77136 ng·h/mL
- Cmax, geometric mean [8, 29]: 4.83539 ng/mL

Compound: COc1cc2c(c(OC)c1OC)-c1ccc(OC)c(=O)cc1[C@@H](NC(C)=O)CC2 [Colchicine + Azithromycin]
- AUC0-t [9, 22]: 17.16 ng·h/mL
- Cmax [9, 22]: 3.05 ng/mL
- AUC0-t, geometric mean [9, 23]: 16.09052 ng·h/mL
- AUC∞, geometric mean [9, 23]: 18.31283 ng·h/mL
- Cmax, geometric mean [9, 23]: 2856.22 pg/mL
- CL/F [9, 24]: 35.01 L/h
- t1/2 [9, 24]: 6.71 h

Compound: COc1cc2c(c(OC)c1O)-c1ccc(OC)c(=O)cc1[C@@H](NC(C)=O)CC2 [2-DMC, 2-O-demethylcolchicine]
- metabolite plasma concentration [10]: < 0.2 ng/mL

Compound: COc1cc2c(c(OC)c1OC)-c1ccc(OC)c(=O)cc1[C@@H](NC(C)=O)CC2 [Colchicine + Ketoconazole]
- AUC0-t, geometric mean [16]: 33.2238 ng·h/mL
- AUC∞, geometric mean [16]: 42.143 ng·h/mL
- Cmax, geometric mean [16]: 5.0785 ng/mL
- Tmax (hr)* (colchicine in plasma, single 0.6 mg dose alone or with steady-state ketoconazole, N=23, *Median (Range) for Tmax): 1.02 h

Compound: COc1cc2c(c(OC)c1OC)-c1ccc(OC)c(=O)cc1[C@@H](NC(C)=O)CC2 [Colchicine + Clarithromycin]
- AUC0-inf [11, 28]: 52.62 ng·h/mL
- AUC0-t [11, 28]: 41.95 ng·h/mL
- Cmax [11, 28]: 8.44 ng/mL
- Tmax (hr)* ([11]; single 0.6 mg dose alone or with steady-state clarithromycin, range printed beside): 1.00 h
